Consider one compound from patent US20110021355A1, “FORMULATION WITH REDUCED HYGROSCOPICITY” (BAYER TECHNOLOGY SERVICES GMBH, priority 2008, published 2011).

SMILES strings stand for the structures.

The data set is described as follows: Final pH of the formulation after dissolution in 0.01-molar hydrochloric acid / release. Type of data set: physicochemical. As to conditions: 0.1 g solid in 100 g of 0.01-molar hydrochloric acid, 400 rpm (FIG. 2). As for the experimental part: For verification of the final pH after dissolution, 100 g of 0.01-molar hydrochloric acid was put in a beaker and stirred with an inclined-vane stirrer at 400 rpm. Then 0.1 g of the solid to be verified (formulation from example 1, and magnesium hydroxide) was added and the increase in pH was recorded (pH-meter: Knick®Calimatic 766).

As to `[Mg+2].[OH-].[OH-]` [pure magnesium hydroxide, magnesium hydroxide], the “time after which the final pH is established” value is recorded as “about 1800 s”.
